Structures are written as SMILES. Several values for one entry are separate records, joined by “and”; a condition that tells them apart may be missing. Equal values may be shown once. Bounds are passed on as bounds.

In patent US20030207877A1, “Pyridoquinoxaline antivirals” (priority 2001, published 2003) one finds IC50 and melting point data, which are given here for 13 compounds.

In series [1] the target is T1, HCMV polymerase (Human cytomegalovirus, UniProt P08546).
T1 construct: made in house; host or cells: SF-9 insect cells infected with recombinant baculovirus
The series is described as follows: HCMV polymerase assay (scintillation proximity assay), original and modified version. It counts as biochemical. Conditions: SPA; several values per example = repeat determinations, assay version not given; read-out: CMV Polymerase IC50. As for the experimental part: The HCMV polymerase assay is performed using a scintillation proximity assay (SPA) as described in several references, such as N.D. Cook, et al., Pharmaceutical Manufacturing International, pages 49-53 (1992); K. Takeuchi, Laboratory Practice, September issue (1992); U.S. Pat. No. 4,568,649 (1986); which are incorporated by reference herein. Reactions are performed in 96-well plates. The assay is conducted in 100 μl volume with 5.4 mM HEPES (pH 7.5), 11.7 MM KCl, 4.5 mM MgCl2, 0.36 mg/ml BSA, and 90 nM ^3H-dTTP. Assays are run with and without CHAPS, (3-[(3-Cholamidopropyl)-dimethylammoniol-1-propane-sulfonate) at a final concentration of 2 mM. HCMV polymerase is diluted in enzyme dilution buffer containing 50% glycerol, 250 mM NaCl, 10 mM HEPES (pH 7.5), 100 μg/ml BSA, and 0.01% sodium azide. The HCMV polymerase, which is expressed in recombinant baculovirus-infected SF-9 cells and purified according to literature procedures, is added at 10% (or 10 μl) of the final reaction volume, i.e., 100 μl. Compounds are diluted in 50% DMSO and 10 μl are added to each well. Control wells contain an equivalent concentration of DMSO. Unless noted otherwise, reactions are initiated via the addition of 6 nM biotinylated poly(dA)-oligo(dT) template/primer to reaction mixtures containing the enzyme, substrate, and compounds of interest. Plates are incubated in a 25° C. or 37° C. H2O bath and terminated via the addition of 40 μl/reaction of 0.5 M EDTA (pH 8) per well. Reactions are terminated within the time-frame during which substrate incorporation is linear and varied depending upon the enzyme and conditions used, i.e., 30 min. for HCMV polymerase. Ten (10) μl of streptavidin-SPA beads (20 mg/ml in PBS/10% glycerol) are added following termination of the reaction. Plates are incubated 10 min. at 37° C., then equilibrated to room temperature, and counted on a Packard Topcount. Linear regressions are performed and IC50's are calculated using computer software.
A modified version of the above HCMV polymerase assay is performed as described above, but with the following changes: Compounds are diluted in 100% DMSO until final dilution into assay buffer. In the previous assay, compounds are diluted in 50% DMSO. 4.5 mM dithiotherotol (DTT) is added to the polymerase buffer.
(In general: Scintillation proximity formats need no separation of bound from free tracer.)

The target of series [2] is T2, Alpha Polymerase (Homo sapiens, UniProt P09884).
T2 sequence (P09884 1-1462): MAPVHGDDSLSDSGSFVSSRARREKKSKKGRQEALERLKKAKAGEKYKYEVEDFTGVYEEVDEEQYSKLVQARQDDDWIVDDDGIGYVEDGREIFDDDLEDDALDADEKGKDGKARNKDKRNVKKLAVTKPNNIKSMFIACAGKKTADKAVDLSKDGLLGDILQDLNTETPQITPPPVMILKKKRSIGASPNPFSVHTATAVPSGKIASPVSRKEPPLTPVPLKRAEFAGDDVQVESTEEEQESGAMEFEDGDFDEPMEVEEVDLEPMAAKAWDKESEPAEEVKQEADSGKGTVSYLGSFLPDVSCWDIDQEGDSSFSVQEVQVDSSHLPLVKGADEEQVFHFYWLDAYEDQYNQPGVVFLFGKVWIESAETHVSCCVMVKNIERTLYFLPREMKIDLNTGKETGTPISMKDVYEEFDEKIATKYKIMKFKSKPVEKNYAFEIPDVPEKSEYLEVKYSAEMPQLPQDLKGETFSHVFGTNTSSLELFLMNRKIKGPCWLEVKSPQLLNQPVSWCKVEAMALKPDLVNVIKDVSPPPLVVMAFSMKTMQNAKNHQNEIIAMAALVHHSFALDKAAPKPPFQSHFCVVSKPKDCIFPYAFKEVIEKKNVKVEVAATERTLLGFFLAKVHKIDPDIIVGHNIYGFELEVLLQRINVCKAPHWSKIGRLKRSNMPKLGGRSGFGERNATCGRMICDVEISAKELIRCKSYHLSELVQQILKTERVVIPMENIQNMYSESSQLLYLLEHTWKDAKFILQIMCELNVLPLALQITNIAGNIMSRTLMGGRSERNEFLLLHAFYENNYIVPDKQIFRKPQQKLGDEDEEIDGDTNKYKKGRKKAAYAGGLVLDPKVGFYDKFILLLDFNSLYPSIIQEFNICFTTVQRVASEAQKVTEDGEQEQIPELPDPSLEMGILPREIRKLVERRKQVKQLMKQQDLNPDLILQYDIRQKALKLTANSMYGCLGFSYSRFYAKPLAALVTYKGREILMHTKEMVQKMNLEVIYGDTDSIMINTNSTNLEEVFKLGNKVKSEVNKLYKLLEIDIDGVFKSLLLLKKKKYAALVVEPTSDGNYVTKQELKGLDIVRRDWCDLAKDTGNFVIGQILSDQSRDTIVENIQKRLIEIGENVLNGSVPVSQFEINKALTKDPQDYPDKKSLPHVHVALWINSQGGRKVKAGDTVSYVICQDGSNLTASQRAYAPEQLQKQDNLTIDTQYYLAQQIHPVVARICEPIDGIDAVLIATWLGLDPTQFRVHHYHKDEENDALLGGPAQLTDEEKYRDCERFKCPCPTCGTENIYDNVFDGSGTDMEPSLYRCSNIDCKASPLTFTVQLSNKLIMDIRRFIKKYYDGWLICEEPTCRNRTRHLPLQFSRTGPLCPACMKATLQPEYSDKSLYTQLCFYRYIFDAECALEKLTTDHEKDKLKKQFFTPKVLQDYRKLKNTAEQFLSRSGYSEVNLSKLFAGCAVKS
As to the kind of experiment: Alpha polymerase inhibition (selectivity). It counts as biochemical.

T1 sequence (P08546 whole entry): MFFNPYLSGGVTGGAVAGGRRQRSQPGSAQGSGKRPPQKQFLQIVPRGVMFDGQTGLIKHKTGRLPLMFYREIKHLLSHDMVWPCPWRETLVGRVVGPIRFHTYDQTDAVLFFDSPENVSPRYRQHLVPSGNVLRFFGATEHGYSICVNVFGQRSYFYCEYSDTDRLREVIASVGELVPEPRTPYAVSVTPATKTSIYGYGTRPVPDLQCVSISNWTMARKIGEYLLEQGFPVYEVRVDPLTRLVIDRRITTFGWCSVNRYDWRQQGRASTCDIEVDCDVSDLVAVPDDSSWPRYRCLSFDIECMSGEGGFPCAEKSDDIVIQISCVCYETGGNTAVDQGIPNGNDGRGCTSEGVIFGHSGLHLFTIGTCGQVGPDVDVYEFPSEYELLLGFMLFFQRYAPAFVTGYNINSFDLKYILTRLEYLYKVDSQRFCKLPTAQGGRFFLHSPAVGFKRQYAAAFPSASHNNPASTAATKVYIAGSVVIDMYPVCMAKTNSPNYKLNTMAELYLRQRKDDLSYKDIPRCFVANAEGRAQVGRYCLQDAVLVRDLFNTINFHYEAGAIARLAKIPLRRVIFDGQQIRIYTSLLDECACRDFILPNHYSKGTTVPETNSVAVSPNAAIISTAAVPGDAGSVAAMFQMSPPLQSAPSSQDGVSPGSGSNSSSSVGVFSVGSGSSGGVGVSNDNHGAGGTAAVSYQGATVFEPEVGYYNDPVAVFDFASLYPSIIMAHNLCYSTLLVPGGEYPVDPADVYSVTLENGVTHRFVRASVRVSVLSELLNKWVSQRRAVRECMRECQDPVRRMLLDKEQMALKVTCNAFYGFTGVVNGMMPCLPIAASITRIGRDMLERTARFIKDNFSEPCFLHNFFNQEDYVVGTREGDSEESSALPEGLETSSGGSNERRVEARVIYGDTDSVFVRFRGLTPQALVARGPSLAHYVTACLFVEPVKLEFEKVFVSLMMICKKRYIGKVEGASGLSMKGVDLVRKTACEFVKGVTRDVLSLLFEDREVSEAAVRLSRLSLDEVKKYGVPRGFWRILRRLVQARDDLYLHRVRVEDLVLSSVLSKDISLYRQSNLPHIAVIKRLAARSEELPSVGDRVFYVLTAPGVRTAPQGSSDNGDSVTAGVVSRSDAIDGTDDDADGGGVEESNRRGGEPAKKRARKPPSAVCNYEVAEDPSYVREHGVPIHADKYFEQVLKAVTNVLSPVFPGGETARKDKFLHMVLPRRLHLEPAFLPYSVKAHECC

The compound `CN(Cc1cc2c3c(c1)c(=O)c(C(=O)NCc1ccc(Cl)cc1)cn3CC(=O)N2C)CC(O)c1ccc(O)cc1` (racemic) [Example 2, rac N-(4-chlorobenzyl)-9-{([2-hydroxy-2-(4-hydroxyphenyl)ethyl](methyl)amino)methyl}-1-methyl-2,7-dioxo-2,3-dihydro-1H,7H-pyrido[1,2,3-de]quinoxaline-6-carboxamide] registered a melting point of 145 to 148 °C. In addition, in series [1], the IC50 was 70 nM and 93 nM. The compound also came in with an IC50 in series [2] of more than 5000 nM.
In the case of `CN(Cc1cc2c3c(c1)c(=O)c(C(=O)NCc1ccc(Cl)cc1)cn3CC(=O)N2C)CC(O)c1cc2ccccc2o1` (racemic) [Example 3, rac 9-{([2-(1-benzofuran-2-yl)-2-hydroxyethyl](methyl)amino)methyl}-N-(4-chlorobenzyl)-1-methyl-2,7-dioxo-2,3-dihydro-1H,7H-pyrido[1,2,3-de]quinoxaline-6-carboxamide], the IC50 in series [1] is 8.6 nM and 7.8 nM and 7.2 nM; in series [2], more than 5000 nM.
With `Cc1ccc(C(O)CN(C)Cc2cc3c4c(c2)c(=O)c(C(=O)NCc2ccc(Cl)cc2)cn4CC(=O)N3C)o1` (racemic) [Example 6, rac N-(4-chlorobenzyl)-9-{([2-hydroxy-2-(5-methyl-2-furyl)ethyl](methyl)amino)methyl}-1-methyl-2,7-dioxo-2,3-dihydro-1H,7H-pyrido[1,2,3-de]quinoxaline-6-carboxamide], the melting point fell in the range of 159 to 161 °C. Besides, the IC50 in series [1] was 120 nM and 89 nM. The IC50 in series [2] was more than 20000 nM.
The compound `CN(Cc1cc2c3c(c1)c(=O)c(C(=O)NCc1ccc(Cl)cc1)cn3CC(=O)N2C)C[C@@H](O)c1ccccc1` [Example 12, N-(4-chlorobenzyl)-9-{[[(2S)-2-hydroxy-2-phenylethyl](methyl)amino]methyl}-1-methyl-2,7-dioxo-2,3-dihydro-1H,7H-pyrido[1,2,3-de]quinoxaline-6-carboxamide] showed an IC50 in series [2] not below 20000 nM.
Compound `CN(Cc1cc2c3c(c1)c(=O)c(C(=O)NCc1ccc(F)cc1)cn3CC(=O)N2C)C[C@@H](O)c1cccnc1` [Example 25] yielded a melting point of 108 to 110 °C. Besides, the IC50 in series [1] worked out at 930 nM.
Taken in the same sequence, the figures for `CN(Cc1cc2c3c(c1)c(=O)c(C(=O)NCc1ccc(F)cc1)cn3CC(=O)N2C)C[C@@H](O)c1nccs1` [Example 27, N-(4-fluorobenzyl)-9-{[[(2R)-2-hydroxy-2-(1,3-thiazol-2-yl)ethyl](methyl)amino]methyl}-1-methyl-2,7-dioxo-2,3-dihydro-1H,7H-pyrido[1,2,3-de]quinoxaline-6-carboxamide] were 156 to 158 °C and 2080 nM.
Taken in the same sequence, the figures for `CN(Cc1cc2c3c(c1)c(=O)c(C(=O)NCc1ccc(F)cc1)cn3CC(=O)N2C)C[C@@H](O)c1ccsc1` [Example 28, N-(4-fluorobenzyl)-9-{[[(2S)-2-hydroxy-2-thien-3-ylethyl](methyl)amino]methyl}-1-methyl-2,7-dioxo-2,3-dihydro-1H,7H-pyrido[1,2,3-de]quinoxaline-6-carboxamide] were 150 to 152 °C and 690 nM.
Taken in the same sequence, the figures for `CN(Cc1cc2c3c(c1)c(=O)c(C(=O)NCc1ccc(F)cc1)cn3CC(=O)N2C)C[C@@H](O)c1ccccc1` [Example 29, N-(4-fluorobenzyl)-9-{[[(2S)-2-hydroxy-2-phenylethyl](methyl)amino]methyl}-1-methyl-2,7-dioxo-2,3-dihydro-1H,7H-pyrido[1,2,3-de]quinoxaline-6-carboxamide] were 150 to 152 °C and 810 nM.
`CN(Cc1cc2c3c(c1)c(=O)c(C(=O)NCc1ccc(F)cc1)cn3CC(=O)N2C)C[C@@H](O)c1cnccn1` [Example 30, N-(4-fluorobenzyl)-9-{[[(2R)-2-hydroxy-2-pyrazin-2-ylethyl](methyl)amino]methyl}-1-methyl-2,7-dioxo-2,3-dihydro-1H,7H-pyrido[1,2,3-de]quinoxaline-6-carboxamide] displayed a melting point of 108 to 110 °C. Also, the half-maximal inhibitory concentration (IC50) in series [1] is 1090 nM.
Taken in the same sequence, the figures for `CN(Cc1cc2c3c(c1)c(=O)c(C(=O)NCc1ccc(Cl)cc1)cn3CC(=O)N2CCO)C[C@@H](O)c1ccco1` [Example 31, N-(4-chlorobenzyl)-9-{([(2R)-2-(2-furyl)-2-hydroxyethyl](methyl)amino)methyl}-1-(2-hydroxyethyl)-2,7-dioxo-2,3-dihydro-1H,7H-pyrido[1,2,3-de]quinoxaline-6-carboxamide] were 166 to 167 °C and 2890 nM.
The corresponding values for `CN(Cc1cc2c3c(c1)c(=O)c(C(=O)NCc1ccc(F)cc1)cn3CC(=O)N2C)C[C@@H](O)c1cccs1` [Example 32, N-(4-fluorobenzyl)-9-{[[(2R)-2-hydroxy-2-thien-2-ylethyl](methyl)amino]methyl}-1-methyl-2,7-dioxo-2,3-dihydro-1H,7H-pyrido[1,2,3-de]quinoxaline-6-carboxamide] are 113 to 115 °C and 580 nM.
Compound `CN(Cc1cc2c3c(c1)c(=O)c(C(=O)NCc1ccc(F)cc1)cn3CC(=O)N2C)C[C@@H](O)c1cc2ccccc2o1` [Example 36, 9-{[[(2R)-2-(1-benzofuran-2-yl)-2-hydroxyethyl](methyl)amino]methyl}-N-(4-fluorobenzyl)-1-methyl-2,7-dioxo-2,3-dihydro-1H,7H-pyrido[1,2,3-de]quinoxaline-6-carboxamide] displayed a melting point of 94 to 96 °C. Moreover, the IC50 in series [1] is less than 30 nM.
The corresponding values for `CN(Cc1cc2c3c(c1)c(=O)c(C(=O)NCc1ccc(F)cc1)cn3CC(=O)N2C)C[C@H](O)c1cc2ccccc2o1` [Example 37, 9-{[[(2S)-2-(1-benzofuran-2-yl)-2-hydroxyethyl](methyl)amino]methyl}-N-(4-fluorobenzyl)-1-methyl-2,7-dioxo-2,3-dihydro-1H,7H-pyrido[1,2,3-de]quinoxaline-6-carboxamide] are 195 to 197 °C and 1190 nM.

In general, IC50 refers to the midpoint of a concentration-inhibition curve. A word on the melting point: it is the temperature, or range, at which the solid turns liquid.
